The text below walks through data of ChEMBL document CHEMBL1201862, “PubChem BioAssay data set” (2004).

The source made the active and inactive calls. Where only a bound is given, the exact number is not on record here.

In experiment [1] the target is Serine/threonine-protein kinase Chk1 (Homo sapiens, UniProt O14757). Type of experiment: functional.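 Note: measured as one member of a kinome-wide kinase profiling panel.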
The target in experiment [2] is Ribosomal protein S6 kinase alpha-3 (Homo sapiens, UniProt P51812). It is filed as functional.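 Note: measured within a kinome-wide profiling panel.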
The target in experiment [3] is Serine/threonine-protein kinase pim-1 (Homo sapiens, UniProt P11309). Type of experiment: functional.
In experiment [4] the target is Interleukin-1 receptor-associated kinase 1 (Homo sapiens, UniProt P51617). It is filed as functional.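 Note: IRAK1 tested as one member of a kinome panel.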
Experiment [5] deals with Megakaryocyte-associated tyrosine-protein kinase (Homo sapiens, UniProt P42679). Type of experiment: functional.
Experiment [6] concerns the target Serine/threonine-protein kinase BRSK1 (Homo sapiens, UniProt Q8TDC3). Type of experiment: functional.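 Note: measured within a kinome-wide kinase panel, with the target listed as KIAA1811.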
Experiment [7] in a line: THP-1 cell cytotoxicity, cytotoxicity control, set 6 (AID 602433). The settings on record: Mycobacterium tuberculosis. Type of experiment: functional.
Experiment [8] addresses Cyclin-dependent kinase 7 (Homo sapiens, UniProt P50613). Type of experiment: functional.
Experiment [9] concerns the target Glycogen synthase kinase-3 beta (Homo sapiens, UniProt P49841). It is filed as functional.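 Note: value comes from a broad kinome profiling panel, with GSK3B as the panel member.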
In experiment [10] the target is Tyrosine-protein kinase JAK3 (Homo sapiens, UniProt P52333). It is filed as functional.
Experiment [11] addresses Homeodomain-interacting protein kinase 2 (Homo sapiens, UniProt Q9H2X6). Type of experiment: functional.
Experiment [12] has as its target Serine/threonine-protein kinase PAK 4 (Homo sapiens, UniProt O96013). Type of experiment: functional.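 Note: value obtained within a kinome profiling panel in which PAK4 was one of the panel members.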
Experiment [13] concerns the target cAMP-dependent protein kinase catalytic subunit PRKX (Homo sapiens, UniProt P51817). It is filed as functional.
Experiment [14] concerns the target Dual specificity protein kinase CLK2 (Homo sapiens, UniProt P49760). Type of experiment: functional.
Experiment [15] deals with Casein kinase I isoform alpha (Homo sapiens, UniProt P48729). It is filed as functional.
In experiment [16] the target is Serine/threonine-protein kinase 3 (Homo sapiens, UniProt Q13188). Type of experiment: functional.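 Note: measured as one member of a kinome-wide kinase panel.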
Experiment [17] has as its target Cyclin-dependent kinase 9 (Homo sapiens, UniProt P50750). It is filed as functional.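 Note: value from the CDK9 entry of a kinome-spanning kinase panel.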
The target of experiment [18] is Serine/threonine-protein kinase 17A (Homo sapiens, UniProt Q9UEE5). It is filed as functional.
The target in experiment [19] is Mitogen-activated protein kinase kinase kinase kinase 4 (Homo sapiens, UniProt O95819). It is filed as functional.
For experiment [20], the target named is cAMP-dependent protein kinase catalytic subunit alpha (Homo sapiens, UniProt P17612). It is filed as functional.
In the next experiment the target is Misshapen-like kinase 1 (Homo sapiens, UniProt Q8N4C8). It is filed as functional.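 Note: kinome panel screen with MINK as the panel member.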
In experiment [21] the target is Tyrosine-protein kinase SYK (Homo sapiens, UniProt P43405). Type of experiment: functional.
In experiment [22] the target is Serine/threonine-protein kinase N2 (Homo sapiens, UniProt Q16513). It is filed as functional.
Experiment [23] has as its target Death-associated protein kinase 3 (Homo sapiens, UniProt O43293). Type of experiment: functional.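 Note: measured as one member of a kinome-wide profiling panel.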
Experiment [24] addresses Mitogen-activated protein kinase kinase kinase kinase 5 (Homo sapiens, UniProt Q9Y4K4). It is filed as functional.
Experiment [25] addresses Calcium/calmodulin-dependent protein kinase type II subunit delta (Homo sapiens, UniProt Q13557). It is filed as functional.
The target of experiment [26] is Dual specificity protein kinase CLK4 (Homo sapiens, UniProt Q9HAZ1). Type of experiment: functional.
Experiment [27] deals with Receptor-type tyrosine-protein kinase FLT3 (Homo sapiens, UniProt P36888). Type of experiment: functional.
The target in experiment [28] is Cyclin-dependent kinase 8 (Homo sapiens, UniProt P49336). The experiment can be described thus: Navigating the Kinome. Panel member name: CDK8. Type of experiment: functional.
Experiment [29] addresses Maternal embryonic leucine zipper kinase (Homo sapiens, UniProt Q14680). It is filed as functional.
The target in experiment [30] is Serine/threonine-protein kinase D3 (Homo sapiens, UniProt O94806). It is filed as functional.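 Note: determined within a kinase panel screen, with PRKCN as the panel member.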
The target of experiment [31] is Lymphokine-activated killer T-cell-originated protein kinase (Homo sapiens, UniProt Q96KB5). It is filed as functional.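 Note: value comes from a kinase panel screen in which TOPK was one of the panel members.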
The target of experiment [32] is Protein kinase C gamma type (Homo sapiens, UniProt P05129). Type of experiment: functional.
Experiment [33] deals with Eukaryotic elongation factor 2 kinase (Homo sapiens, UniProt O00418). Type of experiment: functional.
Experiment [34] has as its target MAP kinase-activated protein kinase 3 (Homo sapiens, UniProt Q16644). Type of experiment: functional.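 Note: value comes from a kinome-wide profiling panel in which MAPKAPK3 is one of the panel members.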
Experiment [35] addresses Testis-specific serine/threonine-protein kinase 2 (Homo sapiens, UniProt Q96PF2). It is filed as functional.
Experiment [36] concerns the target Dual specificity tyrosine-phosphorylation-regulated kinase 4 (Homo sapiens, UniProt Q9NR20). Type of experiment: functional.
Experiment [37] addresses Serine/threonine-protein kinase D2 (Homo sapiens, UniProt Q9BZL6). Type of experiment: functional.
A further experiment has as its target Apelin receptor (Homo sapiens, UniProt P35414). The experiment is described as follows: APJ beta-arrestin recruitment antagonism, SAR follow-up, selectivity assay for CCR6 antagonist project, cell-based, luminescent, enzyme-fragment complementation (AID 588359). Type of experiment: functional.
The target in experiment [38] is T1, Ubiquitin-conjugating enzyme E2 N (Homo sapiens, UniProt P61088).
T1 sequence (P61088 whole entry): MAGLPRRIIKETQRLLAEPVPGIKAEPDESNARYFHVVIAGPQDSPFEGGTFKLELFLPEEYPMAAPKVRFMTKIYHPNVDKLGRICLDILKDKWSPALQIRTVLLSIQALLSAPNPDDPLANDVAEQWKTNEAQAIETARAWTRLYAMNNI
Type of experiment: functional.

Experiment [39] concerns the target C-C chemokine receptor type 6 (Homo sapiens, UniProt P51684). The experiment can be described thus: CCR6 receptor antagonists, SAR follow-up, cell-based, luminescent beta-arrestin readout (AID 540334). It is filed as functional.
Another experiment addresses T2, Streptokinase A (Streptococcus pyogenes serotype M1, UniProt P10520).
T2 sequence (P10520 whole entry): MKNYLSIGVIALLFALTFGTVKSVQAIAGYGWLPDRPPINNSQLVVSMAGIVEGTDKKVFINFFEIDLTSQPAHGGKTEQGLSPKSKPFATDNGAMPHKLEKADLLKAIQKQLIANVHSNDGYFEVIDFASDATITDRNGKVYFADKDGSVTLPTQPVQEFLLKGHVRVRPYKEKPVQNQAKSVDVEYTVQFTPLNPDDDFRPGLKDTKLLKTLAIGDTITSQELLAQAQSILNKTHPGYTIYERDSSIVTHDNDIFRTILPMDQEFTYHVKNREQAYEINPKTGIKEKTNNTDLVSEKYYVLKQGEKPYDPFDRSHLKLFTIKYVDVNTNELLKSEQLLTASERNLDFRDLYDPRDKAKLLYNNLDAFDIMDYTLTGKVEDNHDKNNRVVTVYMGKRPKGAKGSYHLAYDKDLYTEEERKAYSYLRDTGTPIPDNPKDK
The experiment is described as follows: S. pyogenes streptokinase expression inhibitors, potency, dose response, plasminogen activation absorbance, OD405 (AID 1914).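 Note: secreted streptokinase activity via plasminogen activation per viability signal from cell pellet.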 Type of experiment: functional, Streptococcus pyogenes M1 GAS.

Experiment [40] addresses Voltage-gated inwardly rectifying potassium channel KCNH2 (Homo sapiens, UniProt Q12809). The settings on record: Potency.
Experiment [41] relates to Streptococcus sp. 'group A'. The experiment can be described thus: growth inhibition of control SK(-) GAS strain, dose response, counter-screen for streptokinase expression inhibitor project, luminescence, kanamycin, BacTiterGlo, confirmation (AID 1900). Type of experiment: functional, organism-based. On the technique in general: Counterscreens check selectivity or assay interference.

The target of experiment [42] is C-X-C chemokine receptor type 5 (Homo sapiens, UniProt P32302). The experiment can be described thus: CXCR5 receptor antagonists, SAR follow-up, selectivity assay for CCR6 antagonist project, cell-based, beta-arrestin, luminescence, CHO-K1 PathHunter (AID 540340). It is filed as functional.
The target of experiment [43] is T1, Ubiquitin-conjugating enzyme E2 N. Type of experiment: functional. The source holds these as a separate data set.
Another experiment deals with T3, Bcl-2-related protein A1 (Mus musculus, UniProt Q07440).
T3 sequence (Q07440 whole entry): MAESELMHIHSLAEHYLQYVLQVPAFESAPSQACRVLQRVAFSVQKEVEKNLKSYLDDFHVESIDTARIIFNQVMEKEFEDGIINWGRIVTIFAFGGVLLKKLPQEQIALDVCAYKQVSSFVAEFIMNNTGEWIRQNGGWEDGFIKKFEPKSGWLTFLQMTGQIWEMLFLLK
Type of experiment: functional.

For another experiment, the system named is Streptococcus. The experiment is described as follows: Group A Streptococcus viability loss, dose response, counter-screen for streptokinase expression inhibitor project, luminescence, BacTiterGlo (AID 1915).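 Note: potency for reduction of bacterial viability or growth.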 It is filed as functional, organism-based.
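Throughout, for AC50: confirmatory quantitative high-throughput screen measuring inhibition of hERG channel activity.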

Serine/threonine-protein kinase pim-1, sequence (P11309 whole entry): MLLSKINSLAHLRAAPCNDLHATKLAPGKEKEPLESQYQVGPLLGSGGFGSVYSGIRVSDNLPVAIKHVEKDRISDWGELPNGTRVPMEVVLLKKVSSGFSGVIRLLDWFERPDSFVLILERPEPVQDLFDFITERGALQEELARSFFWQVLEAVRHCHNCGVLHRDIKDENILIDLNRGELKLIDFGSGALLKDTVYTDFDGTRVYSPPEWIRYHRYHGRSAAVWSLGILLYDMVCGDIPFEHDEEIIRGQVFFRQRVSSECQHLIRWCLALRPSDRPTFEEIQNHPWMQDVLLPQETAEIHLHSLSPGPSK
Maternal embryonic leucine zipper kinase, sequence (Q14680 whole entry): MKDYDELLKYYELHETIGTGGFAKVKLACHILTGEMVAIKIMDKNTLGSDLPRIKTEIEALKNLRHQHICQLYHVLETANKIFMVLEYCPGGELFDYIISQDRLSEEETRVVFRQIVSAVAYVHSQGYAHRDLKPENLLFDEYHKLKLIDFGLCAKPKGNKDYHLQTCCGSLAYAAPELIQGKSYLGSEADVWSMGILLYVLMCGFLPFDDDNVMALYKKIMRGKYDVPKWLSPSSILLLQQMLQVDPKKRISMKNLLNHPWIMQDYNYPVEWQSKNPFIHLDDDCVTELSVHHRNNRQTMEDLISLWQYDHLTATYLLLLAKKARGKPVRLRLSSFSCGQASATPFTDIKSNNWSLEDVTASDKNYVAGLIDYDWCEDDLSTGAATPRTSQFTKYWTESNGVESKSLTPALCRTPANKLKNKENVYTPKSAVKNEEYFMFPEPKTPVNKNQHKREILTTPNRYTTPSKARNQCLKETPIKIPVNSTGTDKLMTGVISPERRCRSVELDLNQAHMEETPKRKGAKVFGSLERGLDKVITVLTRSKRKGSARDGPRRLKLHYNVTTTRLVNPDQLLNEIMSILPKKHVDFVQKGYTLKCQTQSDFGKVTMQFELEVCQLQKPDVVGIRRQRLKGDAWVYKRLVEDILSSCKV
Dual specificity protein kinase CLK2, sequence (P49760 whole entry, canonical isoform): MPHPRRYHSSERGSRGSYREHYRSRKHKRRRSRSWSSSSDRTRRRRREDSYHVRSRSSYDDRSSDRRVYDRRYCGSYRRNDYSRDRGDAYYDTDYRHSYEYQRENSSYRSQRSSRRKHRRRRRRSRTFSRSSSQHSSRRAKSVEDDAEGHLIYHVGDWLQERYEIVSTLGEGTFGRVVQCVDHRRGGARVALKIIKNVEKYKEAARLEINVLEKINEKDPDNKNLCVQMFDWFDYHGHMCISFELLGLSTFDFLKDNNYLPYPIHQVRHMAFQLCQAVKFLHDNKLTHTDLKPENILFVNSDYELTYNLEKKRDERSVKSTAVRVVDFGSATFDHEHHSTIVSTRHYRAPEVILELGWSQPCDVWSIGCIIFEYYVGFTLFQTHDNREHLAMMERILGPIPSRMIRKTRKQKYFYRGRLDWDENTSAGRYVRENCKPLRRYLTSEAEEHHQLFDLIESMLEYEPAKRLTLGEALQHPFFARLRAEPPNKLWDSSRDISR
Glycogen synthase kinase-3 beta, sequence (P49841 whole entry): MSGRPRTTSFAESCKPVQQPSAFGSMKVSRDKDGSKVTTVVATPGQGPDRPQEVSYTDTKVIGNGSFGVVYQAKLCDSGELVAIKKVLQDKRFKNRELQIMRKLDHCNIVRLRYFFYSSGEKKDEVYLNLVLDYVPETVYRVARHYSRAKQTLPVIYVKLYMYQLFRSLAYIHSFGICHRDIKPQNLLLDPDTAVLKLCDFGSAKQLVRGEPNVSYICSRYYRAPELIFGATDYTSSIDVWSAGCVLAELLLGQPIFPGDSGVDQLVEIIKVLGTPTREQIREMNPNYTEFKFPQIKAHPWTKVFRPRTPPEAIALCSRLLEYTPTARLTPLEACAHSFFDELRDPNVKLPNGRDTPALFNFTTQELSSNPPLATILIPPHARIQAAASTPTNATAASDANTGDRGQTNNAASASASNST
Dual specificity protein kinase CLK4, sequence (Q9HAZ1 whole entry): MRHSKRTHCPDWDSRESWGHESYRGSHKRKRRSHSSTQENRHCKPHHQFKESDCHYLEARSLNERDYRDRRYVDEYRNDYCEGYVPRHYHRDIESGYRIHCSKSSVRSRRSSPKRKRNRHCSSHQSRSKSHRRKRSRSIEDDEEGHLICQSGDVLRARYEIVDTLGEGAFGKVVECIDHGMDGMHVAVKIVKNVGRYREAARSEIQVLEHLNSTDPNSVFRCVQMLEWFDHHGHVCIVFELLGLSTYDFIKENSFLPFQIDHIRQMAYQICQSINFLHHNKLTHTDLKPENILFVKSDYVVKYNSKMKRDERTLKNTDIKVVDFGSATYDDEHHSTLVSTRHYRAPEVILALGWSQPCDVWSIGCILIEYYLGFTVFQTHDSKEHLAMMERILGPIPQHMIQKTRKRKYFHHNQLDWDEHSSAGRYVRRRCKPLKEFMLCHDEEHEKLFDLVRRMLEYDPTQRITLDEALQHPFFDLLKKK
Mitogen-activated protein kinase kinase kinase kinase 5, sequence (Q9Y4K4 whole entry): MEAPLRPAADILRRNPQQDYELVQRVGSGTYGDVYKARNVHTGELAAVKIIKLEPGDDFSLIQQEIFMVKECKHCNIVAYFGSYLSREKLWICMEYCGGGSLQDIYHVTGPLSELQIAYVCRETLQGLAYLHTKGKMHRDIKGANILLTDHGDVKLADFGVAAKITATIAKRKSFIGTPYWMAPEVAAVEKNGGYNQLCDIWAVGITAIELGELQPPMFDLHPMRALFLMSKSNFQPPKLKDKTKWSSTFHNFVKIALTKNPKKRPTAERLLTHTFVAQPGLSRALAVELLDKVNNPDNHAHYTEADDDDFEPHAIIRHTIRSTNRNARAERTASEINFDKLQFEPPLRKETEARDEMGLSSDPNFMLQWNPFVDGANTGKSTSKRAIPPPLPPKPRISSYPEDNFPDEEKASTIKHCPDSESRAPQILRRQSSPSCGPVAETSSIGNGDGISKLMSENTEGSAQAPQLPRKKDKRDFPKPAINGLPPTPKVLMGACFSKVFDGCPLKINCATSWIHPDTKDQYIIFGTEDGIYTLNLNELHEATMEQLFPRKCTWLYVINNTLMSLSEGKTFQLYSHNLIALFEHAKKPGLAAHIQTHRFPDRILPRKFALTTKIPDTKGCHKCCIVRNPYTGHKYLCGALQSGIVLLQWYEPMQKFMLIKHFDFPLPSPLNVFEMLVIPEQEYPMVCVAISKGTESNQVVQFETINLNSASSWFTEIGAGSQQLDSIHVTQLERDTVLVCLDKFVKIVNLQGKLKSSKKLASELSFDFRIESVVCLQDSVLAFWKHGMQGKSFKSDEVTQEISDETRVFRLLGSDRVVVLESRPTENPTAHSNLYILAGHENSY
Interleukin-1 receptor-associated kinase 1, sequence (P51617 whole entry): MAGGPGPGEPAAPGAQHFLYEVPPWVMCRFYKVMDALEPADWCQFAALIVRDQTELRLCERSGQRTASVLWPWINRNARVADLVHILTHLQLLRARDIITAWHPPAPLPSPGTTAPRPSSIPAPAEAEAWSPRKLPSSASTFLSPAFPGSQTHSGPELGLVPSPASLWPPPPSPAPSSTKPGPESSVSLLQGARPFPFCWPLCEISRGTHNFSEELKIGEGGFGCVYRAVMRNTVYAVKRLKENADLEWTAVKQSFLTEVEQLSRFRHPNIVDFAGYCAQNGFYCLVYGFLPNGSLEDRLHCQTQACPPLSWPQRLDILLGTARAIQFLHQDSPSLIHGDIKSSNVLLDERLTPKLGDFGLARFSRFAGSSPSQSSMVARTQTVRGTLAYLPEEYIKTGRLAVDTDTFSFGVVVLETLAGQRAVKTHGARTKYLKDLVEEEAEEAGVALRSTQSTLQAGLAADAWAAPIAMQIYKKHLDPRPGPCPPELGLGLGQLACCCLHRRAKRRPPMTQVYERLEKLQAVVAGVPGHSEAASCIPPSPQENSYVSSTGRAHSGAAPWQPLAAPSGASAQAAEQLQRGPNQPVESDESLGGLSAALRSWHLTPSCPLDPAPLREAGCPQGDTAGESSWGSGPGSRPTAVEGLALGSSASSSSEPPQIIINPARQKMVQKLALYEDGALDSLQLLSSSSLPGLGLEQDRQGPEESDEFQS
Cyclin-dependent kinase 9, sequence (P50750 whole entry): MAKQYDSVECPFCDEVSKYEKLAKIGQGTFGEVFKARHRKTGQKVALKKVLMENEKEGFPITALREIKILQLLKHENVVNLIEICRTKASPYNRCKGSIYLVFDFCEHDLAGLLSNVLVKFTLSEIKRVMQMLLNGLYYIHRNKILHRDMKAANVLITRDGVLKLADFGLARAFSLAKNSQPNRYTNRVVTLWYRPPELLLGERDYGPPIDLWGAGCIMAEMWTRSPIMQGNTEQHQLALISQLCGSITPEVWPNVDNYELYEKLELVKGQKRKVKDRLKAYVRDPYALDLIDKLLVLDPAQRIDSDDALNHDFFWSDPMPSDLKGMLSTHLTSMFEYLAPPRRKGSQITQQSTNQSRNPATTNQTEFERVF
Calcium/calmodulin-dependent protein kinase type II subunit delta, sequence (Q13557 whole entry): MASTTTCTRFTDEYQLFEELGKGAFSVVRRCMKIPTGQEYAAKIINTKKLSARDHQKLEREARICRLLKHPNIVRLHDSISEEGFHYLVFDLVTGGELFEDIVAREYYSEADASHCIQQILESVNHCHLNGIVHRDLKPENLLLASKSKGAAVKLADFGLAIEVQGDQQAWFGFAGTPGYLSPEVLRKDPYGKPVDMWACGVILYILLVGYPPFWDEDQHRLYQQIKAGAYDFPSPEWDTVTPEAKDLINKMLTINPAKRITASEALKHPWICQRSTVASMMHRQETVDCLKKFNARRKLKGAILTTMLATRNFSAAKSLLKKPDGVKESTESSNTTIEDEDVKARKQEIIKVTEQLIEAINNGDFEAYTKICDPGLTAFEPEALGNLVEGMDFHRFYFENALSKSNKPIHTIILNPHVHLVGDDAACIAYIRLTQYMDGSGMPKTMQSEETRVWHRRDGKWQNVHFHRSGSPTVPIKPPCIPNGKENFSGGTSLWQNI

In general, Ki refers to the equilibrium dissociation constant of an inhibitor or competing ligand from its target. Take `Cc1ccc2c(=O)[nH]cnc2c1`: the Ki is 15.8 µM (active) in experiment [1], 5.01 µM (active) in [2] and 7.94 µM (active) in experiment [3].
As to `CC1=NN(c2ccc(C(=O)O)cc2)C(=O)C1=Cc1c(C)cc2nc3ccccc3n2c1O`, the Ki in [4] was 6.31 µM (active); in experiment [5], 1.58 µM (active); in experiment [6], 5.01 µM (active).
What is called CC50 is the concentration that lowers cell viability or growth by half. For the molecule `COCCNC(=O)CSc1nc2ccccc2c(=O)[nH]1`, the CC50 in experiment [7] was > 100 µM (active).
Take `O=C(O)c1ccccc1Nc1ncnc(Nc2ccc3cn[nH]c3c2)n1`: the Ki in experiment [8] was 1.58 µM (active); in experiment [9], 0.0158 µM (active); in experiment [10], 1 µM (active); in experiment [11] it was 0.158 µM (active); in [12] it was 1 µM (active); in [13] it was 1 µM (active). For the same molecule, the Ki is 3.16 µM (active) in experiment [14]; 2 µM (active) in [15]; 0.501 µM (active) in [16]; 1 µM (active) in experiment [3]; 0.2 µM (active) in experiment [17]; 0.02 µM (active) in experiment [18]. Moreover, the Ki in [19] was 2 µM (active); in experiment [20], 3.98 µM (active); at Misshapen-like kinase 1, > 2.51 µM (inactive); in [21], 0.501 µM (active); in experiment [22], 2 µM (active); in [23], 0.2 µM (active). For the same molecule, the Ki in experiment [24] is 2.51 µM (active); in experiment [25] it was > 3.16 µM (inactive); in experiment [26], 0.126 µM (active); in experiment [27] it was 0.0631 µM (active); in [28], > 3.98 µM (inactive); in experiment [29] it was 0.158 µM (active). In [30], the inhibition constant Ki is 0.398 µM (active).
On to `CCN(CC)CCNC(=O)c1c(C)[nH]c(C=C2C(=O)Nc3ccc(F)cc32)c1C`, for which the Ki was > 10 µM (inactive) in experiment [31]; > 6.31 µM (inactive) in experiment [32]; > 3.98 µM (inactive) in [33]; > 10 µM (inactive) in experiment [34]; 0.631 µM (active) in experiment [35]; > 7.94 µM (inactive) in experiment [36]. Moreover, the Ki in experiment [37] was 0.398 µM (active).
Broadly, the IC50 is the midpoint of a concentration-inhibition curve. As a reminder, the EC50 is the concentration needed to bring the measured effect to its halfway point. What is called AC50 is the concentration giving half of the maximal activity seen. With `CCCCCCCCCCCCC/C=C/[C@@H](O)[C@@H](N)CO` [SPHINGOSINE], the IC50 on Apelin receptor is > 66.6 µM (inactive); in experiment [38], 6.2 µM (active); in experiment [39] it was 20.9 µM (inactive); in [42], 32.5 µM (inactive); in experiment [43] it was 6.42 µM (active); at Bcl-2-related protein A1, > 20 µM (inactive). Also, the results for the EC50 (on Streptokinase A; in experiment [41]; with Streptococcus) were > 150 µM (not active), 1.52 µM (active) and 8.1 µM (active), respectively. Further, the AC50 in experiment [40] is 35.5 µM (inconclusive).
